PubChem BioAssay AID248 (DTP/NCI, 2004)
Values joined by “and” are separate entries in the source; they are usually repeats but may differ in a detail not shown here. Identical values can stand only once. Inconclusive results and toxic doses are left out. Rule as the data show it: active = T/C of 150% or more; inactive = T/C below 125%.

Test system: L1210 leukemia ip in BDF1 mice, survival T/C
Experiment: NCI In Vivo Anticancer Drug Screen. Data for tumor model L1210 Leukemia (intraperitoneal) in B6D2F1 (BDF1) mice
Conditions: endpoint: mean survival time, higher = longer survival
Method in brief: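 Mice bearing the transplanted tumor received compound or vehicle. Survival of the treated group was divided by that of the vehicle-treated control group to give the ratio.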

[1] = dose: 50.0 mg/kg/injection, schedule: Q01DX001 (ip), vehicle: carboxymethylcellulose (CMC)
[2] = dose: 100.0 mg/kg/injection, schedule: Q01DX001 (ip), vehicle: carboxymethylcellulose (CMC)
[3] = dose: 100.0 mg/kg/injection, schedule: Q04DX003 (ip), vehicle: Klucel (hydroxypropylcellulose) (HPC)
[4] = dose: 100.0 mg/kg/injection, schedule: Q01DX001 (ip), vehicle: saline with Tween-80
[5] = dose: 200.0 mg/kg/injection, schedule: Q01DX001 (ip), vehicle: saline with Tween-80
[6] = dose: 400.0 mg/kg/injection, schedule: Q01DX001 (ip), vehicle: saline with Tween-80
[7] = dose: 100.0 mg/kg/injection, schedule: Q04DX003 (ip), vehicle: saline with Tween-80
[8] = dose: 200.0 mg/kg/injection, schedule: Q04DX003 (ip), vehicle: saline with Tween-80
[9] = dose: 100.0 mg/kg/injection, schedule: Q01DX001 (ip), vehicle: saline
[10] = dose: 200.0 mg/kg/injection, schedule: Q01DX001 (ip), vehicle: saline
[11] = dose: 400.0 mg/kg/injection, schedule: Q01DX001 (ip), vehicle: saline
[12] = dose: 100.0 mg/kg/injection, schedule: Q01DX009 (ip), vehicle: saline
[13] = dose: 200.0 mg/kg/injection, schedule: Q04DX003 (ip), vehicle: Klucel (hydroxypropylcellulose) (HPC)
[14] = dose: 50.0 mg/kg/injection, schedule: Q01DX009 (ip), vehicle: saline with Tween-80

Measured: T/C

c1ccc(C2CO2)cc1 (stereo unspecified)
inactive: dose: 25.0 mg/kg/injection, schedule: Q04DX003 (ip), vehicle: Klucel (hydroxypropylcellulose) (HPC) 97 % of control | [1] 95 % of control | dose: 50.0 mg/kg/injection, schedule: Q04DX003 (ip), vehicle: Klucel (hydroxypropylcellulose) (HPC) 90 % of control | [2] 101 % of control | [3] 98 % of control | dose: 200.0 mg/kg/injection, schedule: Q01DX001 (ip), vehicle: carboxymethylcellulose (CMC) 97 % of control | dose: 400.0 mg/kg/injection, schedule: Q01DX001 (ip), vehicle: carboxymethylcellulose (CMC) 97 % of control

Nc1nc(=S)c2nnn(C3OC(CO)C(O)C3O)c2[nH]1 (stereo unspecified)
inactive: [4] 104 % of control | [5] 104 % of control | [6] 90 % of control

CC1C(C(=O)c2ccc(-c3ccccc3)cc2)N1C1CCCCC1 (stereo unspecified)
inactive: [7] 93 % of control | [8] 86 % of control

Nc1nc2c(c(-c3ccc(Cl)cc3)n1)CN(CCC(=O)O)C2=O
inactive: [9] 100 % of control | dose: 100.0 mg/kg/injection, schedule: Q04DX003 (ip), vehicle: saline 98 % of control | [10] 105 % of control | dose: 200.0 mg/kg/injection, schedule: Q04DX003 (ip), vehicle: saline 98 % of control | [11] 102 % of control | dose: 400.0 mg/kg/injection, schedule: Q04DX003 (ip), vehicle: saline 98 % of control

CC(N)CCC(C)(C)O (stereo unspecified)
inactive: dose: 50.0 mg/kg/injection, schedule: Q01DX009 (ip), vehicle: saline 93 % of control | [12] 90 % of control

O=[N+]([O-])c1cc(S(=O)(=O)F)ccc1S
inactive: [3] 102 % of control | [13] 100 % of control

COc1cccc(OC)c1C(c1c(OC)cccc1OC)c1c(OC)cccc1OC
inactive: [7] 95 % of control | [8] 91 % of control | dose: 400.0 mg/kg/injection, schedule: Q04DX003 (ip), vehicle: saline with Tween-80 101 % of control

CC(C)C(C)/C=C\C(C)C1CCC2C3=CCC4CC(=O)CCC4(C)C3CCC21C (stereo unspecified)
inactive: dose: 50.0 mg/kg/injection, schedule: Q01DX001 (ip), vehicle: Klucel (hydroxypropylcellulose) (HPC) 88 % of control | dose: 100.0 mg/kg/injection, schedule: Q01DX001 (ip), vehicle: Klucel (hydroxypropylcellulose) (HPC) 93 % of control | dose: 200.0 mg/kg/injection, schedule: Q01DX001 (ip), vehicle: Klucel (hydroxypropylcellulose) (HPC) 88 % of control | dose: 400.0 mg/kg/injection, schedule: Q01DX001 (ip), vehicle: Klucel (hydroxypropylcellulose) (HPC) 97 % of control

O=P1(N(CCF)CCF)NCCCO1 (stereo unspecified)
inactive: dose: 2.5 mg/kg/injection, schedule: Q01DX Z (ip), vehicle: saline 96 % of control | dose: 5.0 mg/kg/injection, schedule: Q01DX Z (ip), vehicle: saline 91 % of control | dose: 10.0 mg/kg/injection, schedule: Q01DX Z (ip), vehicle: other 93 % of control | dose: 10.0 mg/kg/injection, schedule: Q01DX Z (ip), vehicle: saline 115 % of control | dose: 30.0 mg/kg/injection, schedule: Q01DX Z (ip), vehicle: other 106 % of control

C/C(=N/OC(=O)N(C)C)c1ccc(Cl)cc1Cl
inactive: dose: 100.0 mg/kg/injection, schedule: Q01DX001 (ip), vehicle: other 107 % of control

O=C(C[N+]12CC=C(CO)C1C(O)CC2)c1ccc(Br)cc1 (stereo unspecified)
inactive: [9] 104 % of control | [10] 101 % of control

CC(C)(C)NC[Si](C)(C)C
inactive: [12] 92 % of control

CCOC(=O)C1=NN(c2ccccc2)C(=O)C1N=Nc1ccc(S(=O)(=O)Nc2ccccn2)cc1 (stereo unspecified)
inactive: [9] 102 % of control | [10] 96 % of control | [11] 93 % of control

CC1(C)OC2OC(C(O)CN3CC3)C(O)C2O1 (stereo unspecified)
inactive: dose: 24.6 mg/kg/injection, schedule: Q01DX Z (ip), vehicle: methylcellulose (MC) 104 % of control | dose: 37.0 mg/kg/injection, schedule: Q01DX Z (ip), vehicle: methylcellulose (MC) 107 % of control | dose: 56.0 mg/kg/injection, schedule: Q01DX Z (ip), vehicle: methylcellulose (MC) 99 % of control | dose: 84.0 mg/kg/injection, schedule: Q01DX Z (ip), vehicle: methylcellulose (MC) 107 % of control

O=C(CNC(=O)Nc1ccc(Cl)c(Cl)c1)N/N=C/c1c(O)ccc2ccccc12
inactive: [14] 93 % of control | dose: 100.0 mg/kg/injection, schedule: Q01DX009 (ip), vehicle: saline with Tween-80 93 % of control | dose: 200.0 mg/kg/injection, schedule: Q01DX009 (ip), vehicle: saline with Tween-80 91 % of control

Nc1ccc(Cc2ccncc2)cc1
inactive: dose: 25.0 mg/kg/injection, schedule: Q01DX001 (ip), vehicle: carboxymethylcellulose (CMC) 105 % of control | dose: 25.0 mg/kg/injection, schedule: Q01DX009 (ip), vehicle: carboxymethylcellulose (CMC) 102 % of control and 92 % of control | dose: 25.0 mg/kg/injection, schedule: Q04DX002 (ip), vehicle: carboxymethylcellulose (CMC) 94 % of control | dose: 25.0 mg/kg/injection, schedule: Q04DX003 (ip), vehicle: carboxymethylcellulose (CMC) 97 % of control | [1] 102 % of control | dose: 50.0 mg/kg/injection, schedule: Q01DX009 (ip), vehicle: carboxymethylcellulose (CMC) 95 % of control and 98 % of control | dose: 50.0 mg/kg/injection, schedule: Q04DX002 (ip), vehicle: carboxymethylcellulose (CMC) 93 % of control and 103 % of control | dose: 50.0 mg/kg/injection, schedule: Q04DX003 (ip), vehicle: carboxymethylcellulose (CMC) 100 % of control | [2] 103 % of control | dose: 100.0 mg/kg/injection, schedule: Q01DX009 (ip), vehicle: carboxymethylcellulose (CMC) 94 % of control and 103 % of control | dose: 200.0 mg/kg/injection, schedule: Q04DX002 (ip), vehicle: carboxymethylcellulose (CMC) 94 % of control

O=C(N=c1cc(-c2ccc(Cl)cc2)ss1)C(Cc1ccccc1)N1C(=O)c2ccccc2C1=O (stereo unspecified)
inactive: dose: 25.0 mg/kg/injection, schedule: Q01DX009 (ip), vehicle: water 102 % of control | dose: 50.0 mg/kg/injection, schedule: Q01DX009 (ip), vehicle: water 102 % of control | dose: 100.0 mg/kg/injection, schedule: Q01DX009 (ip), vehicle: water 96 % of control | dose: 200.0 mg/kg/injection, schedule: Q01DX009 (ip), vehicle: water 95 % of control | dose: 400.0 mg/kg/injection, schedule: Q01DX009 (ip), vehicle: water 87 % of control

O=C(O)c1cccc(C(=O)O)n1
inactive: dose: 75.0 mg/kg/injection, schedule: Q01DX001 (ip), vehicle: acetone 98 % of control | dose: 150.0 mg/kg/injection, schedule: Q01DX001 (ip), vehicle: acetone 97 % of control

COc1ccccc1/C=c1\[nH]c(=O)/c(=C/c2ccccc2OC)[nH]c1=O
inactive: dose: 100.0 mg/kg/injection, schedule: Q01DX009 (ip), vehicle: Klucel (hydroxypropylcellulose) (HPC) 88 % of control | [3] 101 % of control | dose: 200.0 mg/kg/injection, schedule: Q01DX009 (ip), vehicle: Klucel (hydroxypropylcellulose) (HPC) 86 % of control | [13] 101 % of control | dose: 400.0 mg/kg/injection, schedule: Q01DX009 (ip), vehicle: Klucel (hydroxypropylcellulose) (HPC) 86 % of control | dose: 400.0 mg/kg/injection, schedule: Q04DX003 (ip), vehicle: Klucel (hydroxypropylcellulose) (HPC) 98 % of control

O=C(O)C12CCC(CC1)CC2
inactive: dose: 75.0 mg/kg/injection, schedule: Q01DX009 (ip), vehicle: saline 100 % of control | [9] 93 % of control | dose: 150.0 mg/kg/injection, schedule: Q01DX009 (ip), vehicle: saline 103 % of control | [10] 88 % of control | dose: 300.0 mg/kg/injection, schedule: Q01DX009 (ip), vehicle: saline 100 % of control | [11] 90 % of control

Cc1ccc(Cl)cc1NC(=O)N1C(C)CCCC1C (stereo unspecified)
inactive: dose: 25.0 mg/kg/injection, schedule: Q01DX009 (ip), vehicle: saline with Tween-80 94 % of control and 110 % of control | [14] 106 % of control and 108 % of control | dose: 50.0 mg/kg/injection, schedule: Q04DX003 (ip), vehicle: saline with Tween-80 100 % of control | [4] 101 % of control and 118 % of control | [9] 102 % of control | dose: 100.0 mg/kg/injection, schedule: Q04DX002 (ip), vehicle: saline with Tween-80 95 % of control and 89 % of control | [7] 104 % of control | [5] 101 % of control and 110 % of control | [10] 108 % of control | dose: 200.0 mg/kg/injection, schedule: Q04DX002 (ip), vehicle: saline with Tween-80 93 % of control and 106 % of control | [8] 109 % of control | [6] 101 % of control | dose: 400.0 mg/kg/injection, schedule: Q04DX002 (ip), vehicle: saline with Tween-80 102 % of control
